The numbers were not newly measured in patent US7596836B2 (priority 2007, dated 2009), which cites them from elsewhere.

For data set [1] the following is noted: in vivo.
Data set [2] has as its system HIV. The following applies: clinical trials; response directly related to the dosage given.
For data set [3] the following is noted: 250 mg chloroquine phosphate twice daily must be monitored closely.
For data set [4] the following is noted: in vivo. The source holds these as a separate data set.
The test system of data set [5] is Avian Influenza H5N1. The following applies: patients worldwide, current strain of Avian Influenza H5N1.
The conditions of data set [6]: reports in Japan, including suicide attempts.
For data set [7], the system named is influenza. The following applies: dosage of a compound containing 1% to 3% thymol.

In the case of `CC1CCC(C(C)C)C(O)C1` (stereo not shown) [Menthol], in data set [1], the reduction of coughing is listed as 50%. As for `CCN(CC)CCCC(C)Nc1ccnc2cc(Cl)ccc12` (stereo not shown) [chloroquine], the “efficacy against HIV” value in data set [2] was “effective against HIV”. Besides, the “toxicity of oral chloroquine” value in data set [3] was “ocular complications and renal toxicity”. The serum half-life in data set [4] was 96 h.

Turning to `CCOC(=O)C1=C[C@@H](OC(CC)CC)[C@H](NC(C)=O)[C@@H](N)C1` [oseltamivir], the “mortality of oseltamivir treated patients” value in data set [5] is about 50%. In data set [6], the reported side effects entry is on record as “serious neuropsychiatric symptoms”. Turning to `Cc1ccc(C(C)C)c(O)c1` [thymol, Thymol], in data set [7], the effect against influenza entry is “effective at fighting influenza”.
